Test results as given in PMC9339481 (Nature chemical biology, 2022).
Like-named read-outs stand apart in the source and are kept apart here.

How the values were obtained:
[1] = system: SW620 cells, HDAC6 substrate alpha-tubulin; test: Western blot against acetylated alpha-Tubulin; format: cell-based, human; conditions: 6 h, vs DMSO control
[2] = biological target: T1, recombinant MBLAC2 (Homo sapiens, UniProt Q68D91); test: Palmitoyl-CoA hydrolysis assay; format: biochemical; conditions: for EC50: assay threshold 10 nM
T1 sequence (Q68D91 1-279): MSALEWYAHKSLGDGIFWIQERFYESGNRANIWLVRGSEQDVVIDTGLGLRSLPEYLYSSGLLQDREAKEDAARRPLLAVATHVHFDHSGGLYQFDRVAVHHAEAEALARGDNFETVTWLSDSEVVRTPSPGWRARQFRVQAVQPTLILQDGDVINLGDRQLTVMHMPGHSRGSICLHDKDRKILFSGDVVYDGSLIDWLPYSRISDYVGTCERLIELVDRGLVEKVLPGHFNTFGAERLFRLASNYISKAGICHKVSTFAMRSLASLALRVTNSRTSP

[3] = system: HDACs or other metalloproteins; test: chemoproteomic competition pulldown assay, whole target panel; conditions: for affinities (Kd^app) in chemoproteomic assay: doses up to 3000 μM
[4] = system: CoREST complex subunits RCOR3 and RCOR1; test: HDAC complex selectivity from competition pulldown; format: binding, human
[5] = system: HDAC1 and HDAC2; test: binding kinetics pulldown experiment; parameters: species or system human; conditions: 4 °C, 30 μM
[6] = system: class IIa HDACs; test: chemoproteomic competition pulldown assay, class IIa HDACs; format: binding, human
[7] = system: HDAC6; conditions: reported values; cited from earlier work
[8] = biological target: HDACs 1–3; test: chemoproteomic competition pulldown assay, HDACs 1–3; format: binding, human
[9] = biological target: T2, HDAC8 (Homo sapiens, UniProt Q9BY41); test: HDAC-Glo enzyme activity assay; format: biochemical
T2 sequence (Q9BY41 1-377): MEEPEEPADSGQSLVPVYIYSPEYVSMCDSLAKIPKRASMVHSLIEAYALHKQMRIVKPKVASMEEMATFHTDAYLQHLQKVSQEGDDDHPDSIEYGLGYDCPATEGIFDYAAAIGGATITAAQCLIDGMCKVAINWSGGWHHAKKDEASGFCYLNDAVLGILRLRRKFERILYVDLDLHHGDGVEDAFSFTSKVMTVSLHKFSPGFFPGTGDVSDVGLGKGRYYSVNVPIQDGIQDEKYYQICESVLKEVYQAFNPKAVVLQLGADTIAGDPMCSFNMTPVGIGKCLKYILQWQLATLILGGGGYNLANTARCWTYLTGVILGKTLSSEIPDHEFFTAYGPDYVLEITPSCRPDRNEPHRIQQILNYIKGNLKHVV

[10] = EC50 of MBLAC2 hydrolase activity inhibition

O=C(NO)c1cnc(NC2(c3ccccc3)CC2)nc1 [ACY-738]
acetylation of alpha-Tubulin Lys40 [1]: significant overacetylation

CC(C)[C@H](C(=O)Nc1ccc(C(=O)NO)cc1)c1ccccc1 [AR-42]
EC50 ([2]; read-out: EC50 of MBLAC2 hydrolase activity inhibition): < 10 nM

CN(C)Cc1c(C(=O)NCCOc2ccc(C(=O)NO)cc2)oc2ccccc12 [Abexinostat]
EC50 [2, 10]: < 10 nM

CCCCOc1ccc(CC(=O)NO)cc1 [Bufexamac]
HDAC binding in chemoproteomic assay [3]: did not bind HDACs

O=C(/C=C/c1ccc(CN(CCO)CCc2c[nH]c3ccccc23)cc1)NO [Dacinostat]
lower EC50 value of RCOR3 compared to RCOR1 and other CoREST members [4]: > 10 fold

Cc1cc(Cl)ccc1OCCCC(=O)NO [Droxinostat]
HDAC binding in chemoproteomic assay [3]: did not bind HDACs

Nc1ccccc1NC(=O)c1ccc(CNC(=O)OCc2cccnc2)cc1 [Entinostat]
time until target HDACs maximally competed [5]: more than 2 h

Cc1cc(C)cc(C(=O)NOCCCCCC(=O)NO)c1 [LMK235]
class IIa target engagement [6]: no class IIa target engagement at all

CN(C)c1ccc(C(=O)NCCCCCCC(=O)NO)cc1 [M344]
lower EC50 value of RCOR3 compared to RCOR1 and other CoREST members [4]: > 10 fold

Cn1c(/C=C/C(=O)NO)ccc1/C=C/C(=O)c1cccc(F)c1 [MC1568]
class IIa target engagement [6]: no class IIa target engagement at all

CCCCN(Cc1ccc(C(=O)NO)cc1)C(=O)Nc1ccccc1 [Nexturastat A]
pEC50 HDAC6 [7]: 8.3

O=C(O)CCCc1ccccc1 [Phenylbutanoic Acid]
affinities (Kd^app) in chemoproteomic assay [3]: three-digit micromolar

CCCCc1nc2cc(/C=C/C(=O)NO)ccc2n1CCN(CC)CC [Pracinostat]
EC50 [2, 10]: < 10 nM

O=C(CCCCCCNC(=O)c1cnc(N(c2ccccc2)c2ccccc2)nc1)NO [Ricolinostat]
pKd^app range for HDACs 1–3 [8]: 4.9–6.0

C/C=C1\NC(=O)[C@H]2CSSCC/C=C/[C@H](CC(=O)N[C@H](C(C)C)C(=O)N2)OC(=O)[C@H](C(C)C)NC1=O [Romidepsin]
lower EC50 value of RCOR3 compared to RCOR1 and other CoREST members [4]: > 10 fold

Nc1cc(F)ccc1NC(=O)c1ccc(CNC(=O)/C=C/c2cccnc2)cc1 [Tucidinostat]
MBLAC2 enzyme activity, single dose screen ([2]; 300 nM drug, 30 nM MBLAC2): little if any effect on enzyme activity
effect on MBLAC2 activity ([2]; at a 1,000-fold higher concentration): did not affect MBLAC2 activity

CCCC(CCC)C(=O)O [Valproic Acid]
affinities (Kd^app) in chemoproteomic assay [3]: three-digit micromolar

O=C(CCCCCCC(=O)Nc1ccccc1)NO [Vorinostat]
activity against HDAC8 [9]: very low activity
